Results published in patent US10253052B2, “HBED-bisphosphonates, radiometal conjugates and their use as theranostic agents” (Five Eleven Pharma Inc., priority 2015, dated 2019).
Several values for one entry are separate records, joined by “and”; a condition that tells them apart may be missing. Identical values can stand only once. Entries after “also recorded” stand apart in the source; their conditions may differ.

Experiments:
[1] = In vivo biodistribution in mice; design: species or system normal CD-1 male mice; details: for bone to blood ratio / bone to muscle ratio / Biodistribution: Blood / Biodistribution: Bone / Biodistribution: Brain / Biodistribution: Heart / Biodistribution: Kidney / Biodistribution: Liver / Biodistribution: Lung / Biodistribution: Muscle / Biodistribution: Pancreas / Biodistribution: Skin / Biodistribution: Spleen: iv; for Biodistribution result in words (organ uptake, retention, excretion): normal mice after iv injection
In short: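 Normal male CD-1 mice (25-30 g) received 20-30 μCi of ^68Ga-labelled tracer or [^18F]NaF intravenously and were sacrificed at 2, 30, 60 and 120 min. Harvested organs, with tibia and femur as bone, were weighed and gamma-counted; uptake is expressed as % ID/g wet tissue.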

[2] = In vitro binding to hydroxyapatite; details: 20 mg hydroxyapatite in saline, 10 min at room temperature
In short: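 Hydroxyapatite was pre-incubated 24 h in isotonic saline, then ^68Ga-labelled compound (1 μCi) was added and incubated 10 min at room temperature. After centrifugation and two saline washes, gamma counting of supernatants and solid gave percent ^68Ga bound to hydroxyapatite.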

O=C([O-])CN(CCN(CC(=O)[O-])Cc1cc(CCC(=O)NC(P(=O)(O)O)P(=O)(O)O)ccc1[O-])Cc1cc(CCC(=O)NC(P(=O)(O)O)P(=O)(O)O)ccc1[O-].[68Ga+3] [[^68Ga]2]
bone to blood ratio ([1]; 2 min): 1.1
bone to muscle ratio ([1]; 2 min): 4.9
Biodistribution: Blood ([1]; 2 min post injection): 9.97 ± 1.40 % dose/g
Biodistribution: Bone ([1]; 2 min post injection): 11.0 ± 1.95 % dose/g
Biodistribution: Brain ([1]; 2 min post injection): 0.30 ± 0.02 % dose/g
Biodistribution: Heart ([1]; 2 min post injection): 4.13 ± 0.30 % dose/g
Biodistribution: Kidney ([1]; 2 min post injection): 19.4 ± 1.38 % dose/g
Biodistribution: Liver ([1]; 2 min post injection): 2.67 ± 0.12 % dose/g
Biodistribution: Lung ([1]; 2 min post injection): 5.47 ± 0.57 % dose/g
Biodistribution: Muscle ([1]; 2 min post injection): 2.26 ± 0.34 % dose/g
Biodistribution: Pancreas ([1]; 2 min post injection): 2.05 ± 0.23 % dose/g
Biodistribution: Skin ([1]; 2 min post injection): 3.19 ± 0.45 % dose/g
Biodistribution: Spleen ([1]; 2 min post injection): 2.08 ± 0.22 % dose/g
bone to blood ratio ([1]; 30 min): 26
bone to muscle ratio ([1]; 30 min): 58
Biodistribution: Blood ([1]; 30 min (0.5 hr) post injection): 0.73 ± 0.28 % dose/g
Biodistribution: Bone ([1]; 30 min (0.5 hr) post injection): 18.8 ± 2.82 % dose/g
Biodistribution: Brain ([1]; 30 min (0.5 hr) post injection): 0.03 ± 0.00 % dose/g
Biodistribution: Heart ([1]; 30 min (0.5 hr) post injection): 0.99 ± 0.13 % dose/g
Biodistribution: Kidney ([1]; 30 min (0.5 hr) post injection): 2.98 ± 1.13 % dose/g
Biodistribution: Liver ([1]; 30 min (0.5 hr) post injection): 0.44 ± 0.09 % dose/g
Biodistribution: Lung ([1]; 30 min (0.5 hr) post injection): 0.96 ± 0.23 % dose/g
Biodistribution: Muscle ([1]; 30 min (0.5 hr) post injection): 0.32 ± 0.05 % dose/g
Biodistribution: Pancreas ([1]; 30 min (0.5 hr) post injection): 0.36 ± 0.17 % dose/g
Biodistribution: Skin ([1]; 30 min (0.5 hr) post injection): 0.71 ± 0.13 % dose/g
Biodistribution: Spleen ([1]; 30 min (0.5 hr) post injection): 0.48 ± 0.09 % dose/g
bone to blood ratio ([1]; 60 min): 42
bone to muscle ratio ([1]; 60 min): 82.7 and 83
Biodistribution: Blood ([1]; 60 min (1 hr) post injection): 0.47 ± 0.08 % dose/g
Biodistribution: Bone ([1]; 60 min (1 hr) post injection): 19.7±4.2 % dose/g and 19.7 ± 4.17 % dose/g
Biodistribution: Brain ([1]; 60 min (1 hr) post injection): 0.02 ± 0.00 % dose/g
Biodistribution: Heart ([1]; 60 min (1 hr) post injection): 0.57 ± 0.13 % dose/g
Biodistribution: Kidney ([1]; 60 min (1 hr) post injection): 2.61 ± 0.95 % dose/g
Biodistribution: Liver ([1]; 60 min (1 hr) post injection): 0.43 ± 0.03 % dose/g
Biodistribution: Lung ([1]; 60 min (1 hr) post injection): 0.58 ± 0.09 % dose/g
Biodistribution: Muscle ([1]; 60 min (1 hr) post injection): 0.24 ± 0.04 % dose/g
Biodistribution: Pancreas ([1]; 60 min (1 hr) post injection): 0.27 ± 0.01 % dose/g
Biodistribution: Skin ([1]; 60 min (1 hr) post injection): 0.38 ± 0.05 % dose/g
Biodistribution: Spleen ([1]; 60 min (1 hr) post injection): 0.43 ± 0.05 % dose/g
bone to blood ratio ([1]; 120 min): 77
bone to muscle ratio ([1]; 120 min): 103
Biodistribution: Blood ([1]; 120 min post injection): 0.31 ± 0.09 % dose/g
Biodistribution: Bone ([1]; 120 min post injection): 23.9 ± 5.54 % dose/g
Biodistribution: Brain ([1]; 120 min post injection): 0.02 ± 0.00 % dose/g
Biodistribution: Heart ([1]; 120 min post injection): 0.42 ± 0.08 % dose/g
Biodistribution: Kidney ([1]; 120 min post injection): 2.86 ± 1.16 % dose/g
Biodistribution: Liver ([1]; 120 min post injection): 0.40 ± 0.03 % dose/g
Biodistribution: Lung ([1]; 120 min post injection): 0.40 ± 0.05 % dose/g
Biodistribution: Muscle ([1]; 120 min post injection): 0.23 ± 0.05 % dose/g
Biodistribution: Pancreas ([1]; 120 min post injection): 0.31 ± 0.11 % dose/g
Biodistribution: Skin ([1]; 120 min post injection): 0.33 ± 0.06 % dose/g
Biodistribution: Spleen ([1]; 120 min post injection): 0.43 ± 0.24 % dose/g
Biodistribution result in words (organ uptake, retention, excretion) [1]: excellent bone uptake and fast kidney excretion; also recorded: excellent bone uptake and retention
Hydroxyapatite Binding (%) [2]: 90.8 ± 1.5%

O=C([O-])CN(CCN(CC(=O)[O-])Cc1cc(CCC(=O)NC(P(=O)(O)O)P(=O)(O)O)ccc1[O-])Cc1cc(CCC(=O)NCCCNC(=O)CCc2ccc(O)c(CN(CCN(CC(=O)O)Cc3cc(CCC(=O)NC(P(=O)(O)O)P(=O)(O)O)ccc3O)CC(=O)O)c2)ccc1[O-].[68Ga+3] [[^68Ga]3]
bone to blood ratio ([1]; 2 min): 0.5
bone to muscle ratio ([1]; 2 min): 2.6
Biodistribution: Blood ([1]; 2 min post injection): 8.33 ± 0.23 % dose/g
Biodistribution: Bone ([1]; 2 min post injection): 4.17 ± 0.35 % dose/g
Biodistribution: Brain ([1]; 2 min post injection): 0.28 ± 0.03 % dose/g
Biodistribution: Heart ([1]; 2 min post injection): 3.45 ± 0.25 % dose/g
Biodistribution: Kidney ([1]; 2 min post injection): 12.2 ± 1.51 % dose/g
Biodistribution: Liver ([1]; 2 min post injection): 19.7 ± 1.05 % dose/g
Biodistribution: Lung ([1]; 2 min post injection): 71.6 ± 6.33 % dose/g
Biodistribution: Muscle ([1]; 2 min post injection): 1.62 ± 0.47 % dose/g
Biodistribution: Pancreas ([1]; 2 min post injection): 1.73 ± 0.08 % dose/g
Biodistribution: Skin ([1]; 2 min post injection): 1.24 ± 0.01 % dose/g
Biodistribution: Spleen ([1]; 2 min post injection): 12.8 ± 4.35 % dose/g
bone to blood ratio ([1]; 30 min): 4.8
bone to muscle ratio ([1]; 30 min): 14
Biodistribution: Blood ([1]; 30 min (0.5 hr) post injection): 1.92 ± 0.15 % dose/g
Biodistribution: Bone ([1]; 30 min (0.5 hr) post injection): 9.26 ± 1.45 % dose/g
Biodistribution: Brain ([1]; 30 min (0.5 hr) post injection): 0.06 ± 0.01 % dose/g
Biodistribution: Heart ([1]; 30 min (0.5 hr) post injection): 2.02 ± 0.97 % dose/g
Biodistribution: Kidney ([1]; 30 min (0.5 hr) post injection): 17.1 ± 0.70 % dose/g
Biodistribution: Liver ([1]; 30 min (0.5 hr) post injection): 9.86 ± 0.66 % dose/g
Biodistribution: Lung ([1]; 30 min (0.5 hr) post injection): 15.6 ± 1.39 % dose/g
Biodistribution: Muscle ([1]; 30 min (0.5 hr) post injection): 0.68 ± 0.09 % dose/g
Biodistribution: Pancreas ([1]; 30 min (0.5 hr) post injection): 1.07 ± 1.04 % dose/g
Biodistribution: Skin ([1]; 30 min (0.5 hr) post injection): 1.10 ± 0.18 % dose/g
Biodistribution: Spleen ([1]; 30 min (0.5 hr) post injection): 8.33 ± 2.22 % dose/g
bone to blood ratio ([1]; 60 min): 13
bone to muscle ratio ([1]; 60 min): 16
Biodistribution: Blood ([1]; 60 min (1 hr) post injection): 0.70 ± 0.13 % dose/g
Biodistribution: Bone ([1]; 60 min (1 hr) post injection): 9.26 ± 1.13 % dose/g
Biodistribution: Brain ([1]; 60 min (1 hr) post injection): 0.06 ± 0.01 % dose/g
Biodistribution: Heart ([1]; 60 min (1 hr) post injection): 1.16 ± 0.13 % dose/g
Biodistribution: Kidney ([1]; 60 min (1 hr) post injection): 7.99 ± 1.08 % dose/g
Biodistribution: Liver ([1]; 60 min (1 hr) post injection): 23.5 ± 3.13 % dose/g
Biodistribution: Lung ([1]; 60 min (1 hr) post injection): 41.3 ± 5.15 % dose/g
Biodistribution: Muscle ([1]; 60 min (1 hr) post injection): 0.57 ± 0.14 % dose/g
Biodistribution: Pancreas ([1]; 60 min (1 hr) post injection): 0.26 ± 0.02 % dose/g
Biodistribution: Skin ([1]; 60 min (1 hr) post injection): 0.41 ± 0.02 % dose/g
Biodistribution: Spleen ([1]; 60 min (1 hr) post injection): 10.3 ± 2.65 % dose/g
bone to blood ratio ([1]; 120 min): 29
bone to muscle ratio ([1]; 120 min): 39
Biodistribution: Blood ([1]; 120 min post injection): 0.37 ± 0.07 % dose/g
Biodistribution: Bone ([1]; 120 min post injection): 10.6 ± 0.85 % dose/g
Biodistribution: Brain ([1]; 120 min post injection): 0.05 ± 0.01 % dose/g
Biodistribution: Heart ([1]; 120 min post injection): 1.05 ± 0.11 % dose/g
Biodistribution: Kidney ([1]; 120 min post injection): 8.99 ± 0.20 % dose/g
Biodistribution: Liver ([1]; 120 min post injection): 25.4 ± 2.80 % dose/g
Biodistribution: Lung ([1]; 120 min post injection): 34.8 ± 1.90 % dose/g
Biodistribution: Muscle ([1]; 120 min post injection): 0.28 ± 0.04 % dose/g
Biodistribution: Pancreas ([1]; 120 min post injection): 0.25 ± 0.03 % dose/g
Biodistribution: Skin ([1]; 120 min post injection): 0.33 ± 0.06 % dose/g
Biodistribution: Spleen ([1]; 120 min post injection): 15.7 ± 1.59 % dose/g
Biodistribution result in words (organ uptake, retention, excretion) [1]: high liver uptake and less bone localization
Hydroxyapatite Binding (%) [2]: 95.8 ± 0.1%
